Target: Tyrosine-protein kinase BTK (Homo sapiens, UniProt Q06187)
Test: biochemical
Description: Reversible inhibition of recombinant full-length N-terminal 6-His-tagged human BTK expressed in baculovirus infected Sf21 insect cells using fluorescent-labeled polyGAT peptide as substrate incubated for 30 mins by TR-FRET assay

Tyrosine-protein kinase BTK, sequence (Q06187 whole entry): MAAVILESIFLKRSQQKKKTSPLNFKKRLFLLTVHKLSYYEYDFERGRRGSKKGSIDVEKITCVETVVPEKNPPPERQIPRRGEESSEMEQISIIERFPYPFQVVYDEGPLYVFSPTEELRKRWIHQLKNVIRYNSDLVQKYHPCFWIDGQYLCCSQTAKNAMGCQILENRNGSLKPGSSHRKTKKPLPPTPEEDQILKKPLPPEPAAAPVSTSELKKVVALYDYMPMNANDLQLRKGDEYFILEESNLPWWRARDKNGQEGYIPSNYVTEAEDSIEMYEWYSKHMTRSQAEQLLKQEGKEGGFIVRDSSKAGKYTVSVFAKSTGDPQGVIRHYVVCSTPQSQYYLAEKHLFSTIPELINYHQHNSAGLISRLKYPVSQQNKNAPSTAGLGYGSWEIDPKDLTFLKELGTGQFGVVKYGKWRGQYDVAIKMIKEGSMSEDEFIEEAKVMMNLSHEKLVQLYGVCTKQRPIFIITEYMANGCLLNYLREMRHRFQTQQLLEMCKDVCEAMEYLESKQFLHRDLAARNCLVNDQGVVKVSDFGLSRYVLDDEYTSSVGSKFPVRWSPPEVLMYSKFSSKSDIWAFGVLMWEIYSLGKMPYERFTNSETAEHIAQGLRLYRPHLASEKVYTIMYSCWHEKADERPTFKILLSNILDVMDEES

| Structure (SMILES) | IC50 |
| --- | --- |
| O=C(NCCc1cccc(Nc2ncnc3[nH]ccc23)c1)Nc1ccccc1 | 12 µM |
| O=S(=O)(Nc1cccc(C2CCCN(c3ncnc4[nH]ccc34)C2)c1)c1ccccc1 (stereo unspecified) | 19 µM |
| O=C(Nc1ccc(F)cc1)Nc1cccc(C2CCCN(c3ncnc4[nH]ccc34)C2)c1 (stereo unspecified) | 1.3 µM |
| O=C(Nc1cccc(C2CCCN(c3ncnc4[nH]ccc34)C2)c1)Nc1ccccc1N1CCCCC1 (racemic) | 0.55 µM |
| N#C/N=C(\Nc1ccccc1)Nc1cccc(C2CCCN(c3ncnc4[nH]ccc34)C2)c1 (stereo unspecified) | 68 µM |
| O=C(Nc1cccnc1)Nc1cccc(C2CCCN(c3ncnc4[nH]ccc34)C2)c1 (stereo unspecified) | 3.2 µM |
| O=C(Nc1cccc(C2CCCN(c3ncnc4[nH]ccc34)C2)c1)c1ccccc1 (stereo unspecified) | 4.9 µM |
| O=C(Nc1cccc(C2CCCN(c3ncnc4[nH]ccc34)C2)c1)Nc1ccccn1 (stereo unspecified) | 2.7 µM |
| O=C(Cc1ccccc1)Nc1cccc(C2CCCN(c3ncnc4[nH]ccc34)C2)c1 (stereo unspecified) | 45 µM |
| O=C(NCCCC1CCCN(c2ncnc3[nH]ccc23)C1)Nc1ccccc1 (racemic) | 2 µM |
| O=C(Nc1cccc(C2CCCN(c3ncnc4[nH]ccc34)C2)c1)Nc1ccccc1C1CCCC1 (racemic) | 0.1 µM |
| O=C(NCCCCCNc1ncnc2[nH]ccc12)Nc1ccccc1 | 16 µM |
| O=C(NCCC#CCCNc1ncnc2[nH]ccc12)Nc1ccccc1 | 19 µM |
| CC(C)(C#N)c1ccccc1NC(=O)Nc1cccc(C2CCCN(c3ncnc4[nH]ccc34)C2)c1 (racemic) | > 10 µM |
| O=C(Nc1ccccc1)Nc1cccc(CCNc2ncnc3[nH]ccc23)c1 | 8.3 µM |
| CC(C)(C)c1ccccc1NC(=O)Nc1cccc(C2CCCN(c3ncnc4[nH]ccc34)C2)c1 (racemic) | 0.14 µM |
| O=C(Nc1ccncc1)Nc1cccc(C2CCCN(c3ncnc4[nH]ccc34)C2)c1 (stereo unspecified) | > 10 µM |
| O=C(Nc1cccc(C2CCCN(c3ncnc4[nH]ccc34)C2)c1)Nc1ccccc1C1CC1 (racemic) | 0.2 µM |
| O=C(Nc1cccc(F)c1)Nc1cccc(C2CCCN(c3ncnc4[nH]ccc34)C2)c1 (stereo unspecified) | 1.2 µM |
| O=C(Nc1cccc(C2CCCN(c3ncnc4[nH]ccc34)C2)c1)Nc1ccccc1C(F)(F)F (stereo unspecified) | 0.46 µM |
| O=C(NCCCCCCNc1ncnc2[nH]ccc12)Nc1ccccc1 | 11 µM |
| O=C(Nc1cccc(Cl)c1)Nc1cccc(C2CCCN(c3ncnc4[nH]ccc34)C2)c1 (stereo unspecified) | 1.8 µM |
| c1cc(Nc2nc3ccccc3[nH]2)cc(C2CCCN(c3ncnc4[nH]ccc34)C2)c1 (stereo unspecified) | 4.1 µM |
| O=C(Nc1cccc(C2CCCN(c3ncnc4[nH]ccc34)C2)c1)Nc1ccccc1F (stereo unspecified) | 0.5 µM |
| O=c1c(Nc2ccccc2)c(Nc2cccc(C3CCCN(c4ncnc5[nH]ccc45)C3)c2)c1=O (stereo unspecified) | 44 µM |
| O=C(Nc1ccc(Cl)cc1)Nc1cccc(C2CCCN(c3ncnc4[nH]ccc34)C2)c1 (stereo unspecified) | 2.3 µM |

Source: ChEMBL document CHEMBL4387741, “Optimization of novel reversible Bruton's tyrosine kinase inhibitors identified using Tethering-fragment-based screens” (Bioorg Med Chem, 2019)
